Data as given in paper PMC7344389, “Discovery of Anti-Amoebic Inhibitors from Screening the MMV Pandemic Response Box on Balamuthia mandrillaris, Naegleria fowleri, and Acanthamoeba castellanii” (Pathogens, 2020).
Read-outs that look alike come from different tables or passages of the source.

Key:
Assay type in all cases: cell-based
[1] = test system: Balamuthia mandrillaris trophozoites; experiment: CellTiter-Glo 2.0 trophocidal assay, B. mandrillaris; settings: for IC50: 72 h, CTG method, duplicate twofold serial dilutions from 10 µM, mean ± SD; for Selectivity Index (A549 IC50/B. mandrillaris IC50): SI = (IC50 A549)/(IC50 Amoeba)
Protocol: Pathogenic Balamuthia mandrillaris (CDC:[…]; American Type Culture Collection (ATCC) 50209), a GAE isolate, isolated from a pregnant baboon at the San Diego Zoo in 1986 was donated by Luis Fernando […] University, Mexico [43]. Trophozoites were routinely grown axenically in Balamuthia mandrillaris Itson (BMI) media at 37 °C, 5% CO2 in vented 75 cm^2 tissue culture flasks (Olympus, El Cajon, CA, USA), until the cells were 80-90% confluent. For sub-culturing, 0.25% Trypsin-EDTA (Gibco, Gaithersburg, MD, USA) cell detachment reagent was used to detach the cells from the culture flasks. The cells were collected by centrifugation at 4000 rpm at 4 °C. Complete BMI media is produced by the addition of 10% fetal bovine serum (FBS) and 125 μg of penicillin/streptomycin antibiotics. The trophocidal activity of compounds was assessed using the CellTiter-Glo 2.0 luminescent viability assay (Promega, Madison, WI, USA), as previously described. Trophozoites were routinely cultured as described above and only logarithmic trophozoites were used. […] Inhibitors were assessed for percent inhibition using the criteria of ≤33% growth inhibition (no inhibition), 33-67% growth inhibition (moderate inhibition), and ≥67% growth inhibition (strong inhibition). […] We used this process to reduce the number of potential false positives. […] All assays were incubated at each of the parasites' representative growth temperatures, described above, for 72 h. At the 72 h time point, 25 μL of CellTiter-Glo 2.0 reagent was added to all wells of the 96-well plates using the Biomek NX^P automated workstation. The plates were protected from light and contents were mixed using an orbital shaker at 300 rpm at room temperature for 2 min to induce cell lysis. After shaking, the plates were equilibrated at room temperature for 10 min to stabilize the luminescent signal. The adenosine triphosphate (ATP) luminescent signal (relative light units; RLUs) was measured at 490 nm with a SpectraMax I3X plate reader (Molecular Devices, Sunnyvale, CA, USA). Drug inhibitory concentration (IC50) curves were generated using total ATP RLUs, where controls were calculated as the average of replicates using the Levenberg-Marquardt algorithm, using DMSO as the normalization control, as defined in Collaborative Drug Discovery Inc. (CDD) Vault (Burlingame, CA, USA). Values reported are from a minimum of two biological replicates with standard deviations.

[2] = test system: Acanthamoeba castellanii trophozoites; experiment: CellTiter-Glo 2.0 trophocidal assay, A. castellanii; settings: for IC50: 72 h, CTG method, duplicate twofold serial dilutions from 10 µM, mean ± SD; for Selectivity Index (A549 IC50/A. castellanii IC50): SI = (IC50 A549)/(IC50 Amoeba); for potency against A. castellanii, in words: dose-response, CTG
Protocol: This isolate was also purchased from ATCC. Trophozoites were routinely grown axenically at 27 °C in Protease Peptone-Glucose Media (PG) in non-vented 75 cm^2 tissue culture flasks (Olympus, El Cajon, CA, USA), until the cells were 80–90% confluent. For sub-culturing, cells were mechanically harvested to detach the cells from the culture flasks. The cells were collected by centrifugation at 4000 rpm at 4 °C.
The trophocidal activity of compounds was assessed using the CellTiter-Glo 2.0 luminescent viability assay (Promega, Madison, WI, USA), as previously described. Trophozoites were routinely cultured as described above and only logarithmic trophozoites were used. […] Initially all compounds were assessed in a single-point drug screen at 10 and 1 μM, as previously described. […] We used this process to reduce the number of potential false positives. Drugs were cherry-picked, dissolved in the media specific to each parasite, and assessed in twofold serial dilutions from the highest concentration of 10 μM. All assays were incubated at each of the parasites’ representative growth temperatures, described above, for 72 h. At the 72 h time point, 25 μL of CellTiter-Glo 2.0 reagent was added to all wells of the 96-well plates using the Biomek NX^P automated workstation. The plates were protected from light and contents were mixed using an orbital shaker at 300 rpm at room temperature for 2 min to induce cell lysis. After shaking, the plates were equilibrated at room temperature for 10 min to stabilize the luminescent signal. The adenosine triphosphate (ATP) luminescent signal (relative light units; RLUs) was measured at 490 nm with a SpectraMax I3X plate reader (Molecular Devices, Sunnyvale, CA, USA). Drug inhibitory concentration (IC50) curves were generated using total ATP RLUs, where controls were calculated as the average of replicates using the Levenberg–Marquardt algorithm, using DMSO as the normalization control, as defined in Collaborative Drug Discovery Inc. (CDD) Vault (Burlingame, CA, USA). Values reported are from a minimum of two biological replicates with standard deviations.

[3] = test system: A549 human lung carcinoma cells; experiment: MTS cytotoxicity counter-screen of reconfirmed hits; settings: Homo sapiens
[4] = A549, MTS assay, 72 h, doubling dilutions from 10 µM, read-out: A549 Mean IC50

Row | Compound | IC50 ([1]; Balamuthia mandrillaris) | IC50 ([2]; Acanthamoeba castellanii) | Selectivity Index (A549 IC50/A. castellanii IC50) [2] | Selectivity Index (A549 IC50/A. castellanii IC50) ([2]; listed as ravuconazole) | potency against A. castellanii, in words [2] | IC50 [3, 4] | IC50 [2] | IC50 ([2]; listed as butenafine) | Selectivity Index (A549 IC50/B. mandrillaris IC50) [1] | potency against B. mandrillaris, in words ([1]; dose-response, CTG) | IC50 [1] | Selectivity Index (A549 IC50/A. castellanii IC50) ([2]; listed as terbinafine) | IC50 ([3]; A549, 72 h, read-out: A549 Mean IC50 (µM))
1 | C[C@@H](c1nc(-c2ccc(C#N)cc2)cs1)[C@](O)(Cn1cncn1)c1ccc(F)cc1F [Ravuconazole] | > 10 µM | 0.02 ± 0.01 µM | ≥625 | ≥ 10 | nanomolar potency | > 10 µM | – | – | – | – | – | – | –
2 | CN(Cc1ccc(C(C)(C)C)cc1)Cc1cccc2ccccc12 [Butenafine] | > 10 µM | – | ≥5.08 | – | – | > 10 µM | 1.97 ± 1.76 µM | ≤ 10 µM | – | – | – | – | –
3 | Cc1[nH]c2ccccc2c1CCNCc1ccc(/C=C/C(=O)NO)cc1 [Panobinostat] | 0.39 ± 0.04 µM | > 10 µM | – | – | – | < 0.31 µM | – | – | <0.79 | nanomolar potency | – | – | –
4 | CC(=O)Oc1ccccc1C(=O)Nc1ncc([N+](=O)[O-])s1 [Nitazoxanide] | ≤ 10 µM | > 10 µM | – | – | – | > 10 µM | – | – | ≥1.16 | – | 8.6 ± 1.98 µM | – | –
5 | CN(C/C=C/C#CC(C)(C)C)Cc1cccc2ccccc12 [Terbinafine] | > 10 µM | 0.56 ± 0.28 µM | ≥18 | – | nanomolar potency | – | – | – | – | – | – | ≥ 10 | > 10 µM
